Key:
[1] = tested on: M-109R (doxorubicin-resistant human breast carcinoma); assay: Cytotoxicity assay (methylene blue); tempamine alone or doxorubicin plus tempamine; format: cell-based
Method: (§1) As described in Example 1, the cytotoxicity of tempamine was determined on three cell lines, MCF-7 (human breast adenocarcinoma), M-109S (doxorubicin-sensitive human breast carcinoma), and M-109R (doxorubicin-resistant human breast carcinoma). The effect of free tempamine on cell proliferation was determined by a methylene blue assay as described in Example 1B.
(§2) In yet another aspect, the invention contemplates administration of tempamine in combination with chemotherapeutic agent. […] Doxorubicin was chosen as a model chemotherpeutic agent. The enhancement of doxorubicin cytotoxicity by tempamine was tested on three cell lines, as described in Example 1A. A cytotoxicity assay as described in Example 1B was used. Two of the cell lines, MCF-7 and M-109S, were doxorubicin-sensitive lines and one cell line, M-109R, was doxorubicin resistant. MCF-7 cells are more sensitive to tempamine (100 μM caused 75% growth inhibition), but are less sensitive to doxorubicin, than are M-109S cells.
(§3) MCF-7 (human breast adenocarcinoma), M-109S (doxorubicin-sensitive human breast carcinoma), and M-109R (doxorubicin-resistant human breast carcinoma) were maintained in RPMI medium (Biological Industries, Beit HaEmek, Israel) supplemented with 10% fetal calf serum (FCS). The cell lines were maintained under standard culture conditions at 37° C. in a humidified 5% CO2 atmosphere.
(§4) The effect of tempamine on cell proliferation was determined by the methylene blue assay (Horowitz, A. T., et al., Biochim BiophysActa. 1109:203, (1992)). Briefly, cells were seeded onto 96-well plates (MCF cells at a density of 6×10^3 cells per well, and M-109S and M-109R at a density of 1.5×10^3 cells per well) and allowed to grow for 24 hours prior to treatment with different concentrations of tempamine. After the addition of tempamine (5×10^−5 to 4×10^−4), the cells were incubated in RPMI +10% FCS for four days without change of medium. Then the cells were fixed with 2.5% glutaraldehyde, stained with methylene blue and assayed spectrophotometrically.

[2] = tested on: M-109S (doxorubicin-sensitive human breast carcinoma); assay: as above; format: cell-based; conditions: Homo sapiens, read-out: IC50 (cytotoxicity)
Method: as §1, §2, §3, §4

[3] = tested on: MCF-7 (human breast adenocarcinoma); assay: Cytotoxicity assay (methylene blue); nitroxides alone or doxorubicin plus tempamine; format: cell-based
Method: as §1
FIG. 4 is a plot comparing the percent survival of MCF-7 human breast carcinoma cells at various doses of tempamine (closed circles) and tempol (open circles) in vitro. The cells were analyzed after 72 hours of exposure to the nitroxides. Tempamine and tempol cell growth inhibitory activities were of similar magnitude.
as §2, §3, §4

[4] = n-octanol/water partition coefficient (Kp); format: physicochemical
Method: Free tempamine gives well-defined peaks in both solutions of n-octanol and water. The peak area (or height) is proportional to the tempamine concentrations in the aqueous phase and in n-octanol. The tempaamine concentration in both solvents was determined from a calibration curve of temparnine in each of the two solvents n-octanol and water.
A. Partition Coefficients The n-octanol/water partition coefficient, Kp, of tempamine was measured to estimate its phase distribution in the liposomes, according to the procedure previously described (Samuni, A. et al., Free-Radic Biol Med., 22:1165 (1997)). Partition coefficients were measured at various pH levels (pH 4.0, 7.0, and 10.6), at tempamine concentrations of 2.0 mM and 20.0 mM and at different concentrations of ammonium sulfate (20-400 mM). The volume of each phase was 1 ml.

[5] = Pharmacokinetics and biodistribution in C26 tumor-bearing BALB/c mice; format: in vivo
Method: The pharmacokinetics and biodistribution of liposome-entrapped tempamine and of free tempamine were determined in healthy and in tumor-bearing mice. […] The liposome formulation included a lipid label to allow analysis of the distribution of the liposome lipids. The tempamine levels in blood and tissues were measured using the EPR technique set forth in the Methods section.
8 to 12-week-old BALB/c female mice, obtained through the Animal Breeding House of the Hebrew University (Jerusalem, Israel), were used throughout the study. Animals were housed at Hadassah Medical Center with food and water ad libitum. All procedures were in accordance with the standards required by the Institutional Animal Care and Use Cornmittee of the Hebrew University and Hadassah Medical Organization. Each mouse was injected with one inoculum of tumor cells (1×10^6 C26 cells) subcutaneously into the left flank. […] Phospholipid dose was 11 mg (14.7 μmole)/mouse (377 mg (514 μmole)/kg body weight). At 1, 4, 8, 24, and 48 hours after the injection, the animals were anesthetized with ether inhalation, bled by eye enucleation, and immediately sacrificed for removal of liver, lung, spleen, kidney, and tumor. Each time point consisted of 3 mice. Plasma was separated by centrifugation.
To measure the total tempamine concentration (encapsulated and free) in the organs, the liposomes were solubilized by homogenization in a Polytron homogenizer (Kinematica, Lutzern, Switzerland) in 2% Triton X-100 (1:2, organ:Triton X-100 solution). The homogenized mixture was cooled and heated several times to destroy the lipid membrane (Barenholz, Y., et al., in LIPOSOME TECHNOLOGY, G. Gregoriadis (Ed.), 2nd Edn., Vol. I, CRC Press, Boca Raton, pp. 527-616, (1993)). The plasma samples were mixed 1:1 with 2% Triton X-100 to give the 1% Triton X-100 in the tested sample and also cooled and heated several times. These conditions were effective to achieve a release of all entrapped tempamine from intact liposomes.
For deterrmination of the total concentration of nitroxide+hydroxylamine, potassium ferricyanide at a final concentration of 2-3 mM (depending on the tested tissue) was added to all the samples (plasma and organ homogenates) to oxidize the hydroxylamine to intact nitroxide.
From the samples prepared as described above in section F, duplicates of 100 μl were burned in a Sample Oxidizer (Model 307, Packard Instrument Co., Meridien, Conn.) and left overnight in a dark, cool place. The samples were then measured by β-counting (KONTRON Liquid Scintillation Counter).

[6] = ammonium sulfate 20 mM, TMN 2 μmole
[7] = ammonium sulfate 20 mM, TMN 20 μmole
[8] = ammonium sulfate 150 mM, TMN 2 μmole
[9] = ammonium sulfate 150 mM, TMN 20 μmole
[10] = ammonium sulfate 400 mM, TMN 2 μmole
[11] = ammonium sulfate 400 mM, TMN 20 μmole

CC1(C)CC(N)CC(C)(C)N1[O] [tempamine, 2,2,6,6-tetramethylpiperidine-4-amino-1-oxyl]
IC50 ([1]; Homo sapiens, read-out: IC50 (cytotoxicity)): ~700 µM | cell sensitivity to doxorubicin ([1]; M-109R, addition of 200 μM tempamine): enhanced cell sensitivity to doxorubicin | IC50 [2]: ~700 µM | IC50 ([3]; Homo sapiens, MCF7, 72 h, read-out: IC50 (cell growth inhibition)): 210 µM | growth inhibition ([3]; MCF-7, 100 μM tempamine): 75% | n-octanol/aqueous phase (Kp), pH 7 ([4]; ammonium sulfate 0 mM, TMN 20 μmole): 0.278 | n-octanol/aqueous phase (Kp), pH 4 [4, 6]: 0.031 | n-octanol/aqueous phase (Kp), pH 7 [4, 6]: 0.048 | n-octanol/aqueous phase (Kp), pH 10.6 [4, 6]: 2.418 | n-octanol/aqueous phase (Kp), pH 4 [4, 7]: 0.074 | n-octanol/aqueous phase (Kp), pH 7 [4, 7]: 0.116 | n-octanol/aqueous phase (Kp), pH 10.6 [4, 7]: 2.386 | n-octanol/aqueous phase (Kp), pH 4 [4, 8]: 0.024 | n-octanol/aqueous phase (Kp), pH 7 [4, 8]: 0.055 | n-octanol/aqueous phase (Kp), pH 10.6 [4, 8]: 2.184 | n-octanol/aqueous phase (Kp), pH 4 [4, 9]: 0.049 | n-octanol/aqueous phase (Kp), pH 7 [4, 9]: 0.038 | n-octanol/aqueous phase (Kp), pH 10.6 [4, 9]: 3.969 | n-octanol/aqueous phase (Kp), pH 4 [4, 10]: 0.028 | n-octanol/aqueous phase (Kp), pH 7 [4, 10]: 0.040 | n-octanol/aqueous phase (Kp), pH 10.6 [4, 10]: 3.005 | n-octanol/aqueous phase (Kp), pH 4 [4, 11]: 0.046 | n-octanol/aqueous phase (Kp), pH 7 [4, 11]: 0.034 | n-octanol/aqueous phase (Kp), pH 10.6 [4, 11]: 4.569 | concentration at 4 h ([5]; female, BALB/c, mouse, intravenous, 18 mg/kg, free tempamine, 4 hour time point, read-out: tempamine level in other organs (detection minimum)): < 100 nM | AUC ([5]; female, BALB/c, mouse, plasma, iv, tumor-bearing mice, 18 mg/kg i.v.): 170 ± 5 µg·h/mL | clearance ([5]; female, BALB/c, mouse, plasma, iv, tumor-bearing mice, 18 mg/kg i.v., read-out: CL (ml/h), clearance rate (converted)): 3.2 mL/h | half-life ([5]; female, BALB/c, mouse, plasma, iv, tumor-bearing mice, 18 mg/kg i.v., read-out: T1/2 (h), blood circulation half-life (converted)): 0.15 ± 0.009 h | Vd ([5]; female, BALB/c, mouse, plasma, iv, tumor-bearing mice, 18 mg/kg i.v., read-out: Vss (ml), volume of distribution): 55 ± 15.7 mL | tempamine in liver and spleen ([5]; free tempamine, 1 hour and 4 hours after injection): traces | half-life of tempamine in plasma ([5]; mouse plasma): several minutes

From patent US20040219201A1, “Tempamine compositions and methods of use” (priority 2001, published 2004)
